Reference: patent US9718790B2, “Triazine derivative and pharmaceutical composition having an analgesic activity comprising the same” (SHIONOGI & CO., LTD., priority 2010, dated 2017)

How the values were obtained:
rat P2X3 receptor = rat P2X3 receptor (Rattus norvegicus (Rat), UniProt P49654); test: Evaluation of rat P2X3 receptor inhibitory activity in the presence of rat serum albumin (1% RSA); type: cell-based
Experimental: Rat P2X3 receptor gene (GenBank accession number NM_031075) was expressed in C6BU-1 cell. The cells stably expressing rat P2X3 were seeded in a 96-well microtiter plate at a :concentration of 8000 cells/well and cultured in the medium (8.3% fetal bovine serum, 8.3% horse serum, 1% antibiotic and antifungal in DMEM) for one day at 37° C. under 5% carbon dioxide atmosphere. In transiently expressing system, the C6BU-1 cells were seeded in a 96-well microtiter plate at a concentration of 2500 cells/well and cultured in the medium for one day at 37° C. under 5% carbon dioxide atmosphere. The plasmid was transfected into the cells using transfection reagent FuGENE6 (Roche). The transfected cells were cultured in the medium for one day at 37° C. under 5% carbon dioxide atmosphere. […] Measurement of fluorescence intensity by FDSS 3000 was started, and 40 μL of DMSO solutions containing 1% RSA (final concentrations) and different concentrations of the test compound as prepared by dilution with dilution buffer (20 mM HEPES, 137 mM NaCl, 2.7 mM KCl, 0.9 mM MgCl2, 5.0 mM CaCl2, 5.0 mM D-glucose, 2.5 mM probenecid, 0.1% Pluronic F-127, pH 7.5) were dispensed to each well through the built-in automatic dispenser. Five minutes after, 50 nM ATP solution (50 μL) prepared by dilution with the dilution buffer was dispensed through the built-in automatic dispenser, and the measurement of fluorescence intensity was continued for 3 min. For each well, the specific maximum fluorescence intensity was calculated as the ratio of the maximum fluorescence intensity after addition of the ATP solution to the fluorescence intensity at the starting of the measurement. […] FDSS software (Hamamatsu Photonics K.K.) was used for calculation of the specific maximum fluorescence intensity. IC50 was calculated using Microsoft Excel (Microsoft Corporation) and XLfit (idbs Ltd.).

CYP2D6 = CYP2D6 (Homo sapiens (Human), UniProt P10635); test: CYP inhibition test, pooled human hepatic microsome, dextromethorphan O-demethylation; type: in vitro ADME; conditions: substrate dextromethorphan
Experimental: (§1) Using commercially available pooled human hepatic microsome, and employlng, as markers, 7-ethoxyresorufin O-deethylation (CYP1A2), tolbutamide methyl-hydroxylation (CYP2C9), mephenyloin 4′-hydroxylation (CYP2C19), dextromethorphan O-demethylation (CYP2D6), and terfenedine hydroxylation as typical substrate metabolism reactions of human main five CYP enzyme forms (CYP1A2, 2C9, 2C19, 2D6, 3A4), an inhibitory degree of each metabolite production amount by a test compound was assessed.
(§2) The reaction conditions were as follows: substrate, 0.5 μmol/L ethoxyresorufin (CYP1A2), 100 μmol/L tolbutamide (CYP2C9), 50 μmol/L S-mephenitoin (CYP2C19), 5 μmol/L dextromethorphan (CYP2D6), 1 μmol/L terfenedine (CYP3A4) reaction time, 15 minutes; reaction temperature, 37° C; enzyme, pooled human hepatic microsome 0.2 mg protein/mL; test drug concentration, 1.0, 5.0, 10, 20 μmol/L (four points).
(§3) Each five kinds of substrates, human hepatic microsome, or a test drug in 50 mmol/L Hepes buffer as a reaction solution was added to a 96-well plate at the composition as described above, NADPH, as a cofactor was added to initiate metabolism reactions as markers and, after the incubation at 37° C. for 15 minutes, a methanol/acetonitrile=1/1 (v/v) solution was added to stop the reaction. After the centrifugation at 3000 rpm for 15 minutes, resorufin (CYP1A2 metabolite) in the supernatant was quantified by a fluorescent multilabel counter and tributamide hydroxide (CYP2CP metabolite), mephenyloin 4′ hydroxide (CYP2C19 metabolite), […] (CYP2D6 metabolite), and terfenadine alcohol (CYP3A4 metabolite) were quantified by LC/MS/MS.

CYP2C19 = CYP2C19 (Homo sapiens (Human), UniProt P33261); test: CYP inhibition test, pooled human hepatic microsome, mephenytoin 4'-hydroxylation; type: in vitro ADME; conditions: substrate S-mephenitoin
Experimental: as §1, §2, §3

[1] = Solubility test (1% DMSO, artificial intestinal juice pH 6.8); type: physicochemical; conditions: artificial intestinal juice pH 6.8 with 1% DMSO, 25 °C, fassgf or other biorelevant, kinetic from dmso stock, artificial intestinal juice pH 6.8, 25 degrees Celsius
Experimental: 10 mmol/L compound solution was prepared using DMSO, and then 6 μL of the compound solution was added to 594 μL of artificial intestinal juice in pH 6.8 (to 250 mL of 0.2 mol/L potassium dihydrogen phosphate reagent solution was added 118 mL of 0.2 mol/L NaOH reagent solution and water to provide a final volume of 1000 mL). After standing at 25 degrees Celsius for 16 hours, the mixed solution was filtrated with suction. The filtrate was diluted twice with methanol/water ( 1/1) and then a concentration in the filtration was measured with HPLC or LC/MS/MS by the absolute calibration method.

[2] = Bioavailability (BA) test; type: in vivo; conditions: plasma; mice or SD rats, oral vs intravenous AUC
Experimental: (1) Animals: Mice or SD rats were used
(2) Breeding conditions: Mice or SD rats were allowed to freely take solid food and sterilized tap water.
(3) Dose and grouping: orally or intravenously administered at a predetermined dose; grouping was as follows (Dose depends one the compound) • Oral administration: 0.3 to 30 mg/kg (n=2 to 3) • Intravenous administration: 0.5 to 10 mg/kg (n=2 to 3)
(4) Preparation of dosing solution: for oral administration, in a solution or a suspension state: for intravenous administration, in a solubilized state
(5) Administration method: in oral administration, forcedly administer into ventriculus with oral probe; in intravenous administration, administer from caudal vein with a needle-equipped syringe
(6) Evaluation items: blood was collected over time, and the plasma concentration of drug was measured by LC/MS/MS
(7) Statistical analysis: regarding the transition of the plasma concentration or the present compound, the area under the plasma concentration-time curve (AUC) was calculated by non-linear least squares program WinNonlin (Registered trade name), and the bioavailability (BA) was calculated the AUCs of the oral administration group and intravenous administration group

CYP1A2 = CYP1A2 (Homo sapiens (Human), UniProt P05177); test: CYP inhibition test, pooled human hepatic microsome, 7-ethoxyresorufin O-deethylation; type: in vitro ADME; conditions: substrate ethoxyresorufin
Experimental: as §1, §2, §3

Chain of CYP2C19 (P33261 whole entry): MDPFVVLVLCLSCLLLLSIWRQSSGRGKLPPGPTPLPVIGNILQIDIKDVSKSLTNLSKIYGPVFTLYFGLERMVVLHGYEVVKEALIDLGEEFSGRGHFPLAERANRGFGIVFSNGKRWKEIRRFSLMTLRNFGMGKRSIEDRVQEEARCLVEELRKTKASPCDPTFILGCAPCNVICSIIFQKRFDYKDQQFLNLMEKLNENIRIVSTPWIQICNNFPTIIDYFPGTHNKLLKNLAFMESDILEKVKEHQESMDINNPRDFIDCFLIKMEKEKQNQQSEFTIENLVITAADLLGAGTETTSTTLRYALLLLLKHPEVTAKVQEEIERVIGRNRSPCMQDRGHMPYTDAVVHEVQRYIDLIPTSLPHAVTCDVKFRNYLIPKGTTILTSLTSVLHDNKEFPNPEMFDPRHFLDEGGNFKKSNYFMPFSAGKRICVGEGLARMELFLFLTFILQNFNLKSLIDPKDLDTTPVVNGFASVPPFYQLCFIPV
Chain of CYP2D6 (P10635 whole entry): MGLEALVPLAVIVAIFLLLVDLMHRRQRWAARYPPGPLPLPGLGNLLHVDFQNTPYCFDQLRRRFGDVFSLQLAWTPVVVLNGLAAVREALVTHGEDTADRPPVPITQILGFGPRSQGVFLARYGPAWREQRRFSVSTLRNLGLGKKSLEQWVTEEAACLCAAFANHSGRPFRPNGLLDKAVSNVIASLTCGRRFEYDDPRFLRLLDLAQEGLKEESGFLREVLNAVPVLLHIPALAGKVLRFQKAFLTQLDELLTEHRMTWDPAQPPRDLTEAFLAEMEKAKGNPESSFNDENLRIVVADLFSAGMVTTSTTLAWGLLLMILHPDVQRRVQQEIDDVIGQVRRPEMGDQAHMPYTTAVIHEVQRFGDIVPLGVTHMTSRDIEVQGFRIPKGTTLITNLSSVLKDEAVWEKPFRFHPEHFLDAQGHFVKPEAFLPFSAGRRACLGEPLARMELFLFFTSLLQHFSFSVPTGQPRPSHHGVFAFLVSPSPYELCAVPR
Chain of CYP1A2 (P05177 whole entry): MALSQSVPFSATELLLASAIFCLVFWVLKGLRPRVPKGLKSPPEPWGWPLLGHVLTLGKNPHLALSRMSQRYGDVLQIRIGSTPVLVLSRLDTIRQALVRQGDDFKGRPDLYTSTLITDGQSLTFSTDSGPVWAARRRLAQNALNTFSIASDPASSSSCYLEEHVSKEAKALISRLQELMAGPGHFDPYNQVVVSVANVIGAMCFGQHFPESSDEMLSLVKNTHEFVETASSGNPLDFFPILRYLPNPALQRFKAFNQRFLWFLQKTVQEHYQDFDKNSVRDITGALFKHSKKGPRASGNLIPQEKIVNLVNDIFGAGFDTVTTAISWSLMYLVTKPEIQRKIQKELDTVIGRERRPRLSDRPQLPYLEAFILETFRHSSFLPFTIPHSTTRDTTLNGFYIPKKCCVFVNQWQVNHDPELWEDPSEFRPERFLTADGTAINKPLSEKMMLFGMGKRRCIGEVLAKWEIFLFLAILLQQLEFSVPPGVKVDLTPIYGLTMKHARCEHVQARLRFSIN
Chain of rat P2X3 receptor (P49654 whole entry): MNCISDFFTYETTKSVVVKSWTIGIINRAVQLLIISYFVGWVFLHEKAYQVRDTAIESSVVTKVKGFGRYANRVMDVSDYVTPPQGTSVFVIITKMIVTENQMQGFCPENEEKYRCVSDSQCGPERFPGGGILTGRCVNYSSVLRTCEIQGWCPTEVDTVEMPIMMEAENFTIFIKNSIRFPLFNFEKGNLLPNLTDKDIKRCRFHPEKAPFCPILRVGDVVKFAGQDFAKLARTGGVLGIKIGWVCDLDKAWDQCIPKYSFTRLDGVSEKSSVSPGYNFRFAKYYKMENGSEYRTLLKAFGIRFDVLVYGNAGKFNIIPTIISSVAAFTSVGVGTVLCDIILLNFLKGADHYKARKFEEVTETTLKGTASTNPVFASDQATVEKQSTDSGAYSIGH

## CCn1c(=O)[nH]/c(=N\c2ccc(Oc3ccnc(C(=O)O)c3)cc2)n(Cc2ccc(Cl)cc2)c1=O [Compound I-1788]
Rat P2X3 receptor
  rat P2X3 (+RSA) IC50: 0.059 µM
CYP2D6
  IC50: > 20 µM
CYP2C19
  IC50: > 20 µM
[1]
  solubility at 16 h: > 50 µM
[2]
  bioavailability: 31%
CYP1A2
  IC50: > 20 µM

## C[C@@H](Cn1c(=O)[nH]/c(=N\c2ccc(OCC3CC3)cc2)n(Cc2ccc(Cl)cc2)c1=O)C(=O)O [Compound I-0837]
Rat P2X3 receptor
  rat P2X3 (+RSA) IC50: 0.044 µM
CYP2D6
  IC50: > 20 µM
CYP2C19
  IC50: > 20 µM
[1]
  solubility at 16 h: > 50 µM
[2]
  bioavailability: 46%
CYP1A2
  IC50: > 20 µM

## O=c1[nH]/c(=N\c2ccc(Oc3ccon3)cc2)n(Cc2ccc(Cl)cc2)c(=O)n1CC(CO)CO [Compound I-2291]
Rat P2X3 receptor
  rat P2X3 (+RSA) IC50: 0.02 µM
CYP2D6
  IC50: > 20 µM
CYP2C19
  IC50: > 20 µM
[1]
  solubility at 16 h: > 50 µM
[2]
  bioavailability: 83%
CYP1A2
  IC50: > 20 µM
